Assay results as given in patent publication US20130197032A1, “[…] COMPOUNDS FOR THE TREATMENT OF NEUROLOGICAL AND […] DISORDERS” (A. CARLSSON RESEARCH AB, priority 2010, published 2013).

What was measured:
[1] = biological target: T1, human M3 receptor (Homo sapiens, UniProt P20309); assay: R-SAT assay M3; assay type: cell-based; details: Table 3, M3; percent response of reference Carbachol
T1 construct: expressed in transfected cells; host or cells: NIH/3T3

[2] = biological target: T2, D2 receptors (Homo sapiens, UniProt P14416); assay: BRET2 beta-arrestin-2 recruitment assay at D2; assay type: cell-based; design: expressed in transfected cells; host or cells: HEK-293T; details: percent response of reference ligand dopamine; mean ± SEM
Experimental: (§2) BRET-2 signals were measured using the multiplate reader Mithras 940LB (Berthold Technologies, Bad Wildbad, Germany) and were calculated as the ratio between the Renilla luciferase emission and the GFP2 emission corrected by the background emissions of non-transfected cells.
Each curve is representative of two to three independent experiments.

[3] = biological target: T3, human H1 receptor (Homo sapiens, UniProt P35367); assay: R-SAT assay H1; assay type: cell-based; details: Table 3, H1; percent response of reference Histamine
T3 construct: expressed in transfected cells; host or cells: NIH/3T3

[4] = biological target: T2, D2 receptors; assay: GTPγS binding assay at D2; assay type: biochemical; design: expressed in transfected cells
Experimental: Cells were not centrifuged following cell scraping, but were collected directly into the ice-cold nitrogen cavitation chamber.
50 μl/well Wheat-Germ Agglutinin SPA beads (Perkin Elmer, Shelton, Conn.) were added to the plates and the plates incubated for 1 hour. The plates were then centrifuged at 1,000×g for 10 minutes and read on a Top Count NXT (Perkin Elmer, Shelton, Conn.).
To relate the results observed in R-SAT™ to a more conventional assay system, these ligands were also tested for the ability to induce GTPγS binding through D2 receptors.

[5] = biological target: T4, human 5-HT2A receptors (Homo sapiens, UniProt P28223); assay: R-SAT functional assay at 5-HT2A; assay type: cell-based; design: expressed in transfected cells; host or cells: NIH-3T3; details: for R-SAT Eff(%): percent response of reference ligand 5-CT; for Eff (%): percent response of reference 5-CT; for potency at 5-HT2A receptors compared with D2 receptors: comparison of Table 1 and Table 2
[6] = biological target: T5, human 5-HT1A receptor (Homo sapiens, UniProt P08908); assay: R-SAT assay 5-HT1A; assay type: cell-based; details: Table 3, 5-HT1A; percent response of reference 8-OH-DPAT
T5 construct: expressed in transfected cells; host or cells: NIH/3T3

[7] = biological target: T6, human 5-HT2C(vgv) receptor (Homo sapiens, UniProt P28335, I156V/I160V/N158G); assay: R-SAT assay 5-HT2C; assay type: cell-based; details: Table 3, 5-HT2C; for EC50: negative logarithm of EC50 in molar; for Eff (%): percent response of reference 5-CT
T6 construct: expressed in transfected cells; host or cells: NIH/3T3
T6 sequence (P28335 33-458 I156V/N158G/I160V): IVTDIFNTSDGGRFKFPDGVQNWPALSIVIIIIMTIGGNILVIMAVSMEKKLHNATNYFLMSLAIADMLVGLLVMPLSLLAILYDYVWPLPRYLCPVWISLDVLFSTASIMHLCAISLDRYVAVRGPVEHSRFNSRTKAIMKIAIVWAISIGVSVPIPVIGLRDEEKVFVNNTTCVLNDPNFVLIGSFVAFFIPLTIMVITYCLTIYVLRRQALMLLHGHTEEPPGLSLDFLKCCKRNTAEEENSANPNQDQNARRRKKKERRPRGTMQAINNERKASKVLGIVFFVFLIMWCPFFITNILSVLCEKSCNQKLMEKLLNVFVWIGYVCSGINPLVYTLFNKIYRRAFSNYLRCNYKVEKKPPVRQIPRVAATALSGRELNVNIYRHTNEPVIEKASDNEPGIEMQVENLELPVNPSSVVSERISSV

[8] = system: drug naive mice; assay: Head twitch induction in mice; assay type: in vivo; details: DOI 1 mg/kg ip, OSU6162 enantiomers 9.375-300 μmol/kg ip, 10 min before registration
Experimental: (§1) The animals used in the head twitch experiments were individually placed in Macrolon type II cages and allowed to habituate to these test cages during 30 minutes before the video registration of behavior began. […] The animals were videotaped for 10 minutes; the behavior was scored during the first 5 minutes. The number of head twitches was counted from the videotapes by a person blind to the treatment.
In FIG. 5, the number of head twitches produced during 5 minutes is shown. The mice were habituated to the test cages during 30 minutes before the video registration of behavior began. […] Shown are means and SEM, n=6-12.

[9] = biological target: T7, human 5-HT1F receptor (Homo sapiens, UniProt P30939); assay: R-SAT assay 5-HT1F; assay type: cell-based; details: Table 3, 5-HT1F; percent response of reference BRL 54443
T7 construct: expressed in transfected cells; host or cells: NIH/3T3
T7 sequence (P30939 1-366): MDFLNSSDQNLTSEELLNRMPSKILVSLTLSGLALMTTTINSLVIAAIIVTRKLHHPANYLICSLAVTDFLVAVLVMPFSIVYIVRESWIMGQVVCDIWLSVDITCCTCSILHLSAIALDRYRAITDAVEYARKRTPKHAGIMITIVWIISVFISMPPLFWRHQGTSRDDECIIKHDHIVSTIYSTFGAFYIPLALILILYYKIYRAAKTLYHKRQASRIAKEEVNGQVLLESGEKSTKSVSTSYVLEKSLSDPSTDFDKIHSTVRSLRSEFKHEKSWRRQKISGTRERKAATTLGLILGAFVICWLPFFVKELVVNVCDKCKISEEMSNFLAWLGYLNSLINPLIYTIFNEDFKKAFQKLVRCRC

[10] = biological target: T2, D2 receptors; assay: R-SAT functional assay at D2; assay type: cell-based; design: expressed in transfected cells; host or cells: NIH-3T3; details: for R-SAT Eff(%): percent response of reference ligand pergolide
[11] = system: DOI-induced head twitches in mice; assay: Antagonism of DOI-induced head twitch response in mice; assay type: in vivo; details: DOI 1 mg/kg ip, 75 or 150 μmol/kg ip
Experimental: as §1
The purpose of the second experiment was to investigate whether the OSU6162 enantiomers would be able to counteract DOI-induced head twitches. […] The mice were habituated to the test cages during 30 minutes before the video registration of behavior began. All compounds were administered 10 min before the registration of behavior started. DOI was given in dose of 1 mg/kg (ip) throughout. […] In b) the interaction between (+)-OSU6162 (75 or 150 μmol/kg ip) and DOI is shown. In c) the interaction between (−)- or (+)-OSU6162 (75 μmol/kg ip) and DOI is shown.

[12] = biological target: T4, human 5-HT2A receptors; assay: BRET2 beta-arrestin-2 recruitment assay at 5-HT2A; assay type: cell-based; design: expressed in transfected cells; host or cells: HEK-293T; details: mean ± SEM; for EC50: negative logarithm of EC50 in molar (M), HEK 293T cells, read-out: BRET2 pEC50 (converted); for BRET2 Eff %: percent response of reference ligand 5-HT
Experimental: as §2

[13] = Table 1, negative logarithm of EC50 in molar (M), NIH3T3 cells, mean ± SEM, read-out: R-SAT pEC50 (converted)
[14] = Table 3, 5-HT2A, negative logarithm of EC50 in molar, read-out: pEC50 (converted)

T2 sequence (P14416 1-414 isoform P14416-2): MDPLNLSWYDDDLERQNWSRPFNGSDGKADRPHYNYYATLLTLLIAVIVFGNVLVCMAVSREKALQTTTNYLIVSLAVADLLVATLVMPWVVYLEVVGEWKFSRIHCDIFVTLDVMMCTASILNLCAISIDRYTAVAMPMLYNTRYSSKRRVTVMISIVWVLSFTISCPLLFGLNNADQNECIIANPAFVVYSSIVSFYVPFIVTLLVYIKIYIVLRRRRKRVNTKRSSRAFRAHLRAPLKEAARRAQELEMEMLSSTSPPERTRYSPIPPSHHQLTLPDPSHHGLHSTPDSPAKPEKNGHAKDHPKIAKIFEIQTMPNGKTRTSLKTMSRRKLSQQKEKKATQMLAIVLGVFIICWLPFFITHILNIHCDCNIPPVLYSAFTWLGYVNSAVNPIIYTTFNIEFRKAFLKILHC
T4 sequence (P28223 whole entry): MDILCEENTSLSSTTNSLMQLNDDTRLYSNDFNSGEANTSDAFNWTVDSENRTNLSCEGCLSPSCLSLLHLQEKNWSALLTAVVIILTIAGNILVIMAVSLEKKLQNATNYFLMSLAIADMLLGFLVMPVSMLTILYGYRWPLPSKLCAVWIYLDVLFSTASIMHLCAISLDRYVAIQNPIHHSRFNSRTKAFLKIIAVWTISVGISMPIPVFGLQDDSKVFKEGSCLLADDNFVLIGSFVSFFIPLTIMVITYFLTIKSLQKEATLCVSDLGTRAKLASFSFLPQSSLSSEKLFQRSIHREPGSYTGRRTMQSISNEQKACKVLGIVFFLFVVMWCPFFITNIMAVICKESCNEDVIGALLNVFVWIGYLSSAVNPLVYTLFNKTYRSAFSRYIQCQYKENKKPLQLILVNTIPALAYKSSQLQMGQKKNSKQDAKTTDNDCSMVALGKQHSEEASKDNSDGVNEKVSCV
T5 sequence (P08908 whole entry): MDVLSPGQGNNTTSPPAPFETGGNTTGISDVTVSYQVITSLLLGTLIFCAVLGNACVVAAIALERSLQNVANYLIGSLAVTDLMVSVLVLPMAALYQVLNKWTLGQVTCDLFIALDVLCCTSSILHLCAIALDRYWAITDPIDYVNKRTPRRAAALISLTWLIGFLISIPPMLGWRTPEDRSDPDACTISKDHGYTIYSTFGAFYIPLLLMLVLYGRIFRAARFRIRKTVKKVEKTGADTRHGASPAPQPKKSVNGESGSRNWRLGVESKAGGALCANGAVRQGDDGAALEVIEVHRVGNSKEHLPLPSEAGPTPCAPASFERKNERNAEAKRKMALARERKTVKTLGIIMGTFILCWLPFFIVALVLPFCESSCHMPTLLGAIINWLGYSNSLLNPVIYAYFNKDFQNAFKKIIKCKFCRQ
T1 sequence (P20309 whole entry): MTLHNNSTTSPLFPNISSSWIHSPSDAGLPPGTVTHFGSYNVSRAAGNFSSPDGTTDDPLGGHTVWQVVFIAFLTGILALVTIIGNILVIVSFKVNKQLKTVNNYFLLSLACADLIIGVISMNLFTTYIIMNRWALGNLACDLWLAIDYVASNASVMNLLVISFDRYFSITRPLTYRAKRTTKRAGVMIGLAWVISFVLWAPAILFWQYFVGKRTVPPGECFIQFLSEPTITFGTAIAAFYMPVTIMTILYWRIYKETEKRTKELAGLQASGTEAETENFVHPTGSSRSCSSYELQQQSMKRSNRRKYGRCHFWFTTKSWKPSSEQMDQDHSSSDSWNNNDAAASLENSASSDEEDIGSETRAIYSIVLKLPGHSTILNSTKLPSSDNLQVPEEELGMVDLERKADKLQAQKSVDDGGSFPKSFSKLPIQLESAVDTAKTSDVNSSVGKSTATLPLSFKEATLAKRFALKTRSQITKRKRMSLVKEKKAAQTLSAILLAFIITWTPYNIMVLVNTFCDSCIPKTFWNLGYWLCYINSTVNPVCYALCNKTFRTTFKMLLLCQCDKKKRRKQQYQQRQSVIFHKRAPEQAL
T3 sequence (P35367 whole entry): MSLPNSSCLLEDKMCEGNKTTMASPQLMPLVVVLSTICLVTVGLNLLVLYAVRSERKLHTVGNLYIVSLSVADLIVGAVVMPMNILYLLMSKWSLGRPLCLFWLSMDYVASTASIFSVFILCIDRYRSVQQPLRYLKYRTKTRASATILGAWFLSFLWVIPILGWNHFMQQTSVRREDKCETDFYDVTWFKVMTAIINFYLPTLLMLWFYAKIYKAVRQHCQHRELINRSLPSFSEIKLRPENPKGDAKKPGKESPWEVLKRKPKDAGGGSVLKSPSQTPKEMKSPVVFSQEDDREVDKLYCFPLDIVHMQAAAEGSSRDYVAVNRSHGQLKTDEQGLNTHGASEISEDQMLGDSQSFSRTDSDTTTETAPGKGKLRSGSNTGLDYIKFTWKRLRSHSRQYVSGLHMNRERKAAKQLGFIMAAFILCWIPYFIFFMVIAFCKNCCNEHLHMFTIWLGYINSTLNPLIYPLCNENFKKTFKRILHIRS

| Compound | Eff (%) [1] | BRET2 Eff % [2] | Eff (%) [3] | EC50 [5, 13] | R-SAT Eff(%) ([5]; Table 1, mean ± SEM) | EC50 [5, 14] | Eff (%) ([5]; Table 3, 5-HT2A) | potency at 5-HT2A receptors compared with D2 receptors [5] | Eff (%) [6] | EC50 [7] | Eff (%) [7] | head twitches produced during 5 minutes [8] | Eff (%) [9] | antagonism of DOI-induced head twitches [11] | EC50 [12] | further results |
| --- | --- | --- | --- | --- | --- | --- | --- | --- | --- | --- | --- | --- | --- | --- | --- | --- |
| CCCN1CCC[C@H](c2cccc(S(C)(=O)=O)c2)C1 [(+)-OSU6162, (3R)-3-[3-(methylsulfonyl)phenyl]-1-propylpiperidine] | 6% | 0 ± 0% | 3% | 1.58e-06 M | 139 ± 14% | 1.58e-06 M | 139% | more potent at 5-HT2A than D2 receptors | 24% | 31600 nM | 84% | produced head twitches but to a lesser degree than DOI | 22% | neither 75 nor 150 μmol/kg of (+)-OSU6162 significantly antagonized DOI-induced head twitches | 1.58e-05 M | Emax at 50 µM ([4]; read-out: GTPγS Eff %, response at 50 μM): 36%; Emax at 50 µM ([10]; read-out: Eff (%), response at 50 μM): 77%; Emax at 50 µM ([10]; read-out: R-SAT Eff(%), response at 50 μM): 77%; BRET2 Eff % ([12]; listed as (+) OSU-6162): ~80%; BRET2 Eff % ([12]; listed as (+)-OSU-6162): 84 ± 2% |
| CCCN1CCC[C@@H](c2cccc(S(C)(=O)=O)c2)C1 [(−)-OSU6162, (3S)-3-[3-(methylsulfonyl)phenyl]-1-propylpiperidine] | 0% | 0 ± 0% | 2% | 6.31e-07 M | 113 ± 18% | 6.31e-07 M | 113% | equipotent at D2 and 5-HT2A receptors | 14% | 7940 nM | 68% | produced head twitches but to a lesser degree than DOI | 30% | significantly antagonized DOI-induced head twitches | 1e-05 M | EC50 ([4]; negative logarithm of EC50 in molar, HEK293T membranes, mean ± SEM, read-out: GTPγS pEC50 (converted)): 501 nM; GTPγS Eff % ([4]; percent response of reference ligand dopamine, mean ± SEM): 37 ± 9%; R-SAT pEC50 ([10]; Table 2, negative logarithm of EC50 in molar, NIH3T3 cells, mean ± SEM): 6.1 ± 0.3; EC50 ([10]; Table 2, negative logarithm of EC50 in molar, NIH3T3 cells, mean ± SEM, read-out: R-SAT pEC50 (converted)): 794 nM; R-SAT Eff(%) ([10]; Table 2, mean ± SEM): 30%; R-SAT Eff(%) ([10]; Table 2, mean ± SEM, listed as (−)-OSU-6162): 36 ± 3%; EC50 ([10]; Table 3, D2, negative logarithm of EC50 in molar, read-out: pEC50 (converted)): 794 nM; Eff (%) ([10]; Table 3, D2, percent response of reference Pergolide): 36%; BRET2 Eff % ([12]; listed as (−) OSU-6162): approximately 60%; BRET2 Eff % ([12]; listed as (−)-OSU-6162): 63 ± 2% |
